Assay results published in patent US20100179158A1, “INHIBITORS OF CYCLIC AMP PHOSPHODIESTERASES” (priority 2007, published 2010).

Legend:
[1] = tested on: PDE2A, PDE4A, PDE4B, Cgs2; assay: High throughput 5FOA growth screens of bioactive libraries; assay type: cell-based, murine; Schizosaccharomyces pombe; details: average 20 μM; composite Z score cut-off ≧8.53
Method: High throughput drug screens were carried out at the Broad Institute's Chemical Biology Program screening facility (Broad Institute, Cambridge, Mass.). Depending upon the strain, cultures were pregrown to exponential phase in EMM complete medium containing from 0.5 to 2.5 mM cAMP to repress fbp1-ura4 transcription. […] Starting cell concentrations ranged from 0.5×10^5 to 4×10^5 cells/ml depending on the screening strain. […] Other positive control dishes contained 5 mM cAMP in the 5FOA medium. Cultures were grown for 48 hours at 30° C., sealed in an airtight container with moist paper towels to prevent evaporation. Optical densities (OD600) of cultures were measured using a microplate reader. Bioinformatic analysis of the results to determine composite Z scores was performed as previously described^30, 31.

[2] = tested on: PDE4A, PDE4B, PDE4D, PDE7A; assay: Overall PDE inhibitor profile from the yeast assays (table footnotes, summary); assay type: cell-based
From the text: PDE inhibitors were identified using methods described herein, such as high throughput drug screens on genetically engineered fission yeast strains that express drug targets (e.g., PDE4A and/or PDE4B, which are anti-inflammatory targets). PDE inhibitors were identified based on their ability to stimulate growth and compounds were identified because they were effective in live cells. In addition, targets used in the assays are full-length proteins (as opposed to simply the catalytic domain) and the assay used included a built-in toxicity test, permeability test and stability test. The inhibitors identified display a very high degree of target specificity. Compounds identified include inhibitors that act on two of three PDE4 family enzymes and inhibitors that act on combinations of PDE4 and PDE7 strains. […] Limited inhibition of PDE4D by a PDE inhibitor is desirable, in view of the fact that inhibition of PDE4D causes emesis and cardiac arrhythmias. Subtype specificity was confirmed by means of cAMP assays.
(§1) Cells were pregrown in EMM medium [MP Biomedicals (Solon, OH), 3% glucose, filter-sterilized to avoid carmelization, which would introduce variability into the optical density of the medium] containing from 0 mM to 2.5 mM cAMP (or either 0.5 mM or 1.0 mM cGMP). This was to repress expression of the fbp1-ura4 reporter prior to exposure of cells to 5FOA medium. Cells were grown at 30° C. to exponential phase (approximately 10^7 cells/ml). Cells were collected by centrifugation and resuspended in 5FOA medium, and 25 μl were transferred to 384-well microtiter dishes (untreated, with flat clear bottoms) that had been pre-filled with 25 μl 5FOA medium and pre-pinned with 100 nl of compounds (stock solutions were generally 10 mM). Starting cell concentrations ranged from 0.5×10^5 to 4×10^5 cells/ml depending on the screening strain. […] Other positive control dishes contained 5 mM cAMP in the 5FOA medium for PDEs that lack appropriate control compounds. Cultures were grown for 48 hours at 30° C., sealed in an airtight container with moist paper towels to prevent evaporation. Optical densities (OD600) of cultures were measured using a microplate reader. Bioinformatic analysis of the results to determine composite Z scores was performed as previously described (1, 3).

[3] = target: T1, PDE7A (Homo sapiens, UniProt Q13946); assay: Fission yeast 5FOA growth assay, strain expressing PDE7A; assay type: cell-based; details: 5FOA growth
T1 construct: targets used in the assays are full-length proteins (as opposed to simply the catalytic domain); expressed in transfected cells; host or cells: Schizosaccharomyces pombe, gene integrated at the cgs2 locus
Method: as §1

[4] = target: T2, PDE8A (Mus musculus, UniProt O88502); assay: fbp1-lacZ β-galactosidase assay, PDE8A strain DDP13; assay type: cell-based, murine; details: possibly a permeability problem in the yeast
T2 construct: targets used in the assays are full-length proteins (as opposed to simply the catalytic domain); expressed in transfected cells; host or cells: Schizosaccharomyces pombe strains DDP13 and CHP1141
T2 sequence (O88502 1-823): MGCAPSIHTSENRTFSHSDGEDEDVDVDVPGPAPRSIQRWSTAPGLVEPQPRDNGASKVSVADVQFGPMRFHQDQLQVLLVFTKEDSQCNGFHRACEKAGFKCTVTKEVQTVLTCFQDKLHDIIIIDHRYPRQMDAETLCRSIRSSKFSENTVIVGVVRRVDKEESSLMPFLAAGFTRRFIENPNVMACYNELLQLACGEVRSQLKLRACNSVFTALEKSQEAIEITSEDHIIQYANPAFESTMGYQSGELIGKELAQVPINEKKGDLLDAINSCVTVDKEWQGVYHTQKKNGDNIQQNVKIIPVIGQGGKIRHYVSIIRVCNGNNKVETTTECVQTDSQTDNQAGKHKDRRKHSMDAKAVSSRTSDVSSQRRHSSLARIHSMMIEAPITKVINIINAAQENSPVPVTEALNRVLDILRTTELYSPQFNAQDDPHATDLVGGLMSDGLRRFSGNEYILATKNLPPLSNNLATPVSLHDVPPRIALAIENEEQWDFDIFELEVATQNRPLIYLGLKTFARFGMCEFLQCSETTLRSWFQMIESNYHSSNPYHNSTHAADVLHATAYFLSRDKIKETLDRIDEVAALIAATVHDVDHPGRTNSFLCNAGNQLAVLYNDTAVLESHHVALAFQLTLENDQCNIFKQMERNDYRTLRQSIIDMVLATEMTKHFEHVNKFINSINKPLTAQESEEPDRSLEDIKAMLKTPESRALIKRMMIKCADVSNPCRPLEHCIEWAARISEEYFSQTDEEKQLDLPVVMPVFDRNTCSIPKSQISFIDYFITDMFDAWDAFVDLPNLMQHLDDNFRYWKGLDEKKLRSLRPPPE
Method: β-galactosidase assays and characterization of 5FOA-sensitivity were carried out as previously described^10. cAMP assays were performed on exponential phase cells grown in EMM complete medium (3% glucose), using the Assay Designs cAMP EIA kit, according to manufacturer's instructions (Assay Designs, Ann arbor, MI).
The effect of known PDE inhibitors on the expression of the fbp1-lacZ fusion in murine PDE-expressing strains was tested. […] For Table 4 β-galactosidase activity was determined from 3 to 4 independent exponential phase cultures. The average±SD represents specific activity per milligram of soluble protein.

[5] = target: T3, PDE4D3 (Homo sapiens, UniProt Q08499); assay: IC50 on PDE4D3; assay type: biochemical; details: read-out: IC50, PDE 4D3
T3 construct: targets used in the assays are full-length proteins (as opposed to simply the catalytic domain); expressed in transfected cells; host or cells: Schizosaccharomyces pombe, gene integrated at the cgs2 locus

[6] = target: T4, PDE4A1 (Mus musculus, UniProt O89084); assay: IC50 on PDE4A1; assay type: biochemical, murine; details: read-out: IC50, PDE 4A1
T4 construct: targets used in the assays are full-length proteins (as opposed to simply the catalytic domain); expressed in transfected cells; host or cells: Schizosaccharomyces pombe, gene integrated at the cgs2 locus
T4 sequence (O89084 1-610 isoform O89084-2): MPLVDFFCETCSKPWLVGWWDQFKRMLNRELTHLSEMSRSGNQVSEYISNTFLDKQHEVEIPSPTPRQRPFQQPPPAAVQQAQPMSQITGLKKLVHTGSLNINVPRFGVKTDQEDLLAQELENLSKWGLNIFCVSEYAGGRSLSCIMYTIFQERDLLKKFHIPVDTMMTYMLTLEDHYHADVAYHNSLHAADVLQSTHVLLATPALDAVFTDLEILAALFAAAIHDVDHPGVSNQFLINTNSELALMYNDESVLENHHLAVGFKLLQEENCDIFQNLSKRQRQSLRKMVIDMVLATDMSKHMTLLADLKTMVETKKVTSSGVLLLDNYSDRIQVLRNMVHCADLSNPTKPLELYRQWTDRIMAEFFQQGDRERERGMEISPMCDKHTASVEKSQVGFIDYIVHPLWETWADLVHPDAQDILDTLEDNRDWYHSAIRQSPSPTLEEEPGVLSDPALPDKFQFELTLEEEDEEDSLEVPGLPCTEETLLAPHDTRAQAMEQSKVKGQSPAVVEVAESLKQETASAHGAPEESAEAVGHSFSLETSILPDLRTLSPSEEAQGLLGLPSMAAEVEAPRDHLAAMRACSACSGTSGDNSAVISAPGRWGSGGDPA

T1 sequence (Q13946 whole entry, the tested form may be a part): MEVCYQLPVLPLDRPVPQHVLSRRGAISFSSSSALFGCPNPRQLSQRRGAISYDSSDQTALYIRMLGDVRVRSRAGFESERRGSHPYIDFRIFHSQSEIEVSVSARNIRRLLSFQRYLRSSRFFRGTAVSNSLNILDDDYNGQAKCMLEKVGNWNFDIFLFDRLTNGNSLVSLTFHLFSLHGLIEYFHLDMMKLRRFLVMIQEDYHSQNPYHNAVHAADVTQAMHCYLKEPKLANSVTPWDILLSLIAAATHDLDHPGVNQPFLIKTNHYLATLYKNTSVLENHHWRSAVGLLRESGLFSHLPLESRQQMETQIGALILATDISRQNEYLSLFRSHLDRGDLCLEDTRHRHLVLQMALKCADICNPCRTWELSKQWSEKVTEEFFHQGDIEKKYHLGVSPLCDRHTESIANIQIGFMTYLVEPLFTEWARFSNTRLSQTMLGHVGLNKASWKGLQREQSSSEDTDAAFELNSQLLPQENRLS
T3 sequence (Q08499 1-673 isoform Q08499-2): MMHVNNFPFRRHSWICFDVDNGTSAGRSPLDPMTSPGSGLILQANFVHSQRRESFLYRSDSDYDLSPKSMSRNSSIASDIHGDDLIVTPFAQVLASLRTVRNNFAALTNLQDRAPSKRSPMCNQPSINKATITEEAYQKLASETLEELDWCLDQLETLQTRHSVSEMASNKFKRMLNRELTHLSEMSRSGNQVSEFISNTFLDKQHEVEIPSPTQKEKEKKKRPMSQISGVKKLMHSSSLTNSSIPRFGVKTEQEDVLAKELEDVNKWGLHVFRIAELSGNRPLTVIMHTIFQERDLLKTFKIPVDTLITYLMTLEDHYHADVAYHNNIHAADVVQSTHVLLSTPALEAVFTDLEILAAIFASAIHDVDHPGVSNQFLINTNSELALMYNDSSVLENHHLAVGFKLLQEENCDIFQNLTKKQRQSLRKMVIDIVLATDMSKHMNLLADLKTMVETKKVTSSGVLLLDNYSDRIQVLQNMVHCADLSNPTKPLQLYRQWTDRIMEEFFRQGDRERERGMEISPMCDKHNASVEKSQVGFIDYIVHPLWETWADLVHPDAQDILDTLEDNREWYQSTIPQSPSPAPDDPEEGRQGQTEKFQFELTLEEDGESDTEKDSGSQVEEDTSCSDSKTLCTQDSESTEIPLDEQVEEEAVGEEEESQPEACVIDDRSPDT

| SMILES | PDE inhibitor profile in words (table footnote / summary) [2] | other results |
| --- | --- | --- |
| COc1c2ccoc2cc2oc(C)cc(=O)c12 [visnagin] | – | Result in high throughput screens for 5FOA-resistant growth [1]: identified |
| CCCCn1c2ccccc2c2nc3ccccc3nc21 [2013, I20] | (2) Strong PDE4A inhibitor | – |
| CC(C)(C)c1c(C#N)sc2sc(C#N)c(N)c12 [Compound 30-4] | (3) Little/no activity under conditions used | ED50, PDE 7A [3]: ND ND weak activity ND ND |
| C=CCn1c2ccc(Br)cc2c2nc3ccccc3nc21 [2017, C18] | (2)-(4) Moderate PDE4A, 4B inhibitors | – |
| CCC(=O)C1=C(C)N(c2ccc(F)cc2)C(=O)/C1=C\c1cccs1 [Compound 27-6] | (4) Strong PDE4A, 4B inhibitor, Moderate PDE7A inhibitor | – |
| C=Cn1c2ccccc2c2nc3ccccc3nc21 [2033, H06] | (1) Moderate to strong PDE4A, 4B inhibitor | – |
| OCCN(CCO)c1nc(N2CCCCC2)c2nc(N(CCO)CCO)nc(N3CCCCC3)c2n1 [dipyridamole] | – | Inhibition of PDE8A in yeast [4]: not able to be inhibited |
| COC(=O)C1=C(C)N(C)C(=O)/C1=C\c1cccs1 [Compound 27-1] | (1) Strong PDEA5 inhibitor | – |
| COC(=O)C1=C(C)N(CC(C)C)C(=O)/C1=C\c1cccs1 [Compound 27-3] | (1) Strong PDE4A, 4B inhibitor | – |
| COC(=O)C1=C(C)N(c2cccc(C)c2)C(=O)/C1=C\c1cccs1 [Compound 27-5] | (2) Strong PDE4A, 4B inhibitor, Moderate PDE4D inhibitor | – |
| C=CCn1c2ccc(Br)cc2c2nc3ccccc3nc21 [2019, G03] | (2)-(4) Moderate PDE4A, 4B inhibitors | – |
| N#Cc1sc2sc(C#N)c(-c3cccs3)c2c1N [Compound 30-2] | (1) Weak PDE7A inhibitor | – |
| Cc1ccc2c(c1)CC[C@@H]1CC(=O)CC[C@@]21C [Compound 2158J12] | (2) Strong PDE7A and PDE4s (including D) inhibitor | – |
| N#Cc1sc2sc(C#N)c(-c3ccco3)c2c1N [Compound 30] | (2) Strong PDE7A inhibitor | – |
| CCC(=O)C1=C(C)N(c2cccc(C(F)(F)F)c2)C(=O)/C1=C\c1cccs1 [Compound 27-7] | (3) Strong PDE4A5 inhibitor | – |
| COc1c2occc2c(OC)c2c(=O)cc(C)oc12 [khellin] | – | Result in high throughput screens for 5FOA-resistant growth [1]: identified |
| C=CCn1c2ccccc2c2nc3ccccc3nc21 [1427, P20] | (3) Strong 4B, Moderate 4A inhibitor | – |
| N#Cc1sc2sc(C#N)c(-c3ccc(Cl)cc3)c2c1N [Compound 30-3] | (3) Little/no activity under conditions used | – |
| CC(C)Cn1c2ccccc2c2nc3ccccc3nc21 [1422, M02] | (1) Strong PDE4A inhibitor | – |
| COc1ccc2c(c1)[C@]1(C)CCC[C@@](C)(CO)C1CC2 (some centres unmarked) [Compound 2067M03] | (1) Strong PDE7A inhibitor, Weak to moderate PDE4A, 4B inhibitor | – |
| CCOC(=O)c1sc2sc(C(=O)OCC)c(-c3ccco3)c2c1N [Compound 30-1] | (4) Weak PDE4A inhibitor | – |
| O=C(O)Cn1c2ccc(Cl)cc2c2nc3ccccc3nc21 [1429, L06] | (4) Moderate PDE4A, 4B inhibitor | – |
| CCCCn1c2ccccc2c2nc3ccccc3nc21 [2015, P06] | (2)-(4) Moderate PDE4A, 4B inhibitors | – |
| CC(C)n1c2ccc(Cl)cc2c2nc3ccccc3nc21 [Compound 35] | – | IC50 [5]: 35 nM; IC50 [6]: 100 nM |
| Cc1cc2cc3c(C)cc(=O)oc3c(C)c2o1 [trioxsalen] | – | Result in high throughput screens for 5FOA-resistant growth [1]: identified |
| COC(=O)C1=C(C)N(Cc2ccccc2)C(=O)/C1=C\c1cccs1 [Compound 27-4] | (1) Strong PDE4A, 4B inhibitor | – |
| Cc1cc(C)nc(SCC[S+]([O-])c2ccc(C(C)(C)C)cc2)n1 (centres unmarked) [Compound 26-2] | (2) Moderate 4A inhibitor | – |
| CC(C)Cn1c2ccc(Br)cc2c2nc3ccccc3nc21 [2015, L04] | (5) Moderate 4B inhibitor | – |
| COC(=O)C1=C(C)N(C)C(=O)/C1=C\c1cccs1 [Compound 27-2] | (2) Strong PDE4A, 4B inhibitor; Moderate PDE4D inhibitor | – |
| COC(=O)C1=C(C)N(c2ccccc2Cl)C(=O)/C1=C\c1ccco1 [Compound 27-8] | (2) Strong PDE4A, 4B inhibitor | – |
